Data reported in US11458149B1, “TEAD inhibitors and uses thereof” (Ikena Oncology, Inc., priority 2019, dated 2022).
pEC50: −log10 of the molar value. Read-outs that look alike come from different tables or passages of the source.

Tests used:
TEAD = TEAD reporter assay (Hippo Pathway TEAD Reporter - MCF7 cell line, luciferase); format: cell-based, human; details: read-out: TEAD Reporter Assay EC50
Source text: TEAD inhibition can be assayed using Hippo Pathway TEAD Reporter—MCF7 Cell Line (BPS Bioscience, Catalog #: 60618).
The TEAD Reporter—MCF7 cell line contains the firefly luciferase gene under the control of TEAD responsive elements stably integrated into the human breast cancer cell line, MCF7. Inside the cells, basal unphosphorylated YAP/TAZ remains in the nucleus and induces the constitutive expression of luciferase reporter. The cell line is validated for the inhibition of the expression of luciferase reporter by the activators of the Hippo pathway.
• 1) Harvest TEAD Reporter—MCF7 cells from culture in growth medium and seed cells at a density of 35,000 cells per well into white clear-bottom 96-well microplate in 45 μl of assay medium. • 2) Incubate cells at 37° C. in a CO2 incubator for overnight. • 3) Dilute the activators (H2O2 or okadaic acid) stock in assay medium. Add 5 μl of diluted activators to the wells. The final concentration of DMSO in assay medium is 0.1%. • 4) Add 5 μl of assay medium with same concentration of DMSO without activator to control wells. • 5) Add 50 μl of assay medium with DMSO to cell-free control wells (for determining background luminescence). • 6) Set up each treatment in at least triplicate. • 7) Incubate cells at 37° C. in a CO2 incubator for 5-6 hours. • 8) Perform luciferase assay using the ONE-Step™ Luciferase Assay System following the protocol provided: Add 100 μl of ONE-Step™ Luciferase reagent per well and rock at room temperature for ˜15 minutes. Measure luminescence using a luminometer. • 9) Data Analysis: Obtain the background-subtracted luminescence by subtracting the average background luminescence (cell-free control wells) from the luminescence reading of all wells.
(§1) Certain compounds were tested in TEAD reporter assay, and in H226 and H28. A: EC50<0.1 uM; B: 0.1 uM≤EC50≤0.5 uM; C: EC50>0.5 uM.

H226 = experiment: Anti-proliferation assay in H226 cells; format: cell-based, human; details: read-out: H226 EC50
Protocol: as §1
Individual cell lines were grown in medium according to supplier instructions and seeded into 96-well plates at a density that ensured logarithmic growth over 72 hours. TEAD inhibitor compounds were administered to cells at a top concentration of 10 μm and subsequently a 10 point 3-fold serial dilution was conducted. After 72 hours, proliferation was quantified using Cell TITERGLO™ (Promega, Inc.) and compared to vehicle control. IC50 and EC50 values were generated using XLFit curve fitting software.

[1] = Homo sapiens, MCF7, TEAD Reporter - MCF7 cells
[2] = Homo sapiens, NCI-H226, H226 cells

Structure (SMILES)	pEC50 (TEAD; [1])	pEC50 (H226; [2])	pEC50 (TEAD; TEAD Reporter - MCF7 cells)	pEC50 (H226; H226 cells)
C=CC(=O)N[C@H]1CCN(Cc2ccc(C(F)(F)F)cc2)c2ccccc21 [Compound I-68, N-[(4S)-1-[[4-(Trifluoromethyl)phenyl]methyl]-3,4-dihydro-2H-quinolin-4-yl]prop-2-enamide]	6.30 to 7.00	< 6.30		
C=CC(=O)NC1CCC(Oc2ccc(C(F)(F)F)cc2)CC1 (centres unmarked) [Compound I-70, N-[4-[4-(Trifluoromethyl)phenoxy]cyclohexyl]prop-2-enamide]			> 7.00	> 7.00
C=CC(=O)Nc1cc(Oc2cccc(C(F)(F)F)c2)c(C)cn1 [Compound I-45]	> 7.00	> 7.00		
C=CC(=O)N1CCC(NCc2ccc(C(F)(F)F)cc2)CC1 [Compound I-53, 1-[4-[[4-(trifluoromethyl)phenyl]methylamino]-1-piperidyl]prop-2-en-1-one]	6.30 to 7.00	6.30 to 7.00		
C=CC(=O)N[C@H]1CCCN(Cc2cccc(C(F)(F)F)c2)C1 [Compound I-48, N-[(3S)-1-[[3-(trifluoromethyl)phenyl]methyl]-3-piperidyl]prop-2-enamide]	< 6.30			
C=CC(=O)NC1CCN(Cc2ccc(OC(F)(F)F)cc2)CC1 [Compound I-388]	< 6.30	< 6.30		
C=CC(=O)N1CC[C@H](NCc2ccc(C(F)(F)F)cc2)C1 [Compound I-64, 1-[(3S)-3-[[4-(Trifluoromethyl)phenyl]methylamino]pyrrolidin-1-yl]prop-2-en-1-one]	> 7.00	> 7.00		
C=CC(=O)N[C@H]1Cc2ccccc2N(Cc2cccc(C(F)(F)F)c2)C1 [Compound I-60, N-[(3S)-1-[[3-(trifluoromethyl)phenyl]methyl]-3,4-dihydro-2H-quinolin-3-yl]prop-2-enamide]	6.30 to 7.00	> 7.00		
C=CC(=O)NC1CCN(Cc2cccc(C(F)(F)F)c2)CC1 [Compound I-51, N-[1-[[3-(trifluoromethyl)phenyl]methyl]-4-piperidyl]prop-2-enamide]	< 6.30	< 6.30		
C=CC(=O)N[C@@H]1CCCN(Cc2cccc(C(F)(F)F)c2)C1 [Compound I-47, N-[(3R)-1-[[3-(trifluoromethyl)phenyl]methyl]-3-piperidyl]prop-2-enamide]	< 6.30	< 6.30		
C=CC(=O)NC1CCN(Cc2ccccc2)CC1 [Compound I-54, N-(1-benzyl-4-piperidyl)prop-2-enamide]	< 6.30	< 6.30		
C=CC(=O)Nc1cccc(N2CCCc3ccc(C(F)(F)F)cc32)c1 [Compound I-38, N-[3-[7-(trifluoromethyl)-3,4-dihydro-2H-quinolin-1-yl]phenyl]prop-2-enamide]	< 6.30	< 6.30		
C=CC(=O)NC1CCC(Oc2ccc(C(F)(F)F)cc2)CC1 (centres unmarked) [Compound I-67, N-[4-[4-(Trifluoromethyl)phenoxy]cyclohexyl]prop-2-enamide]	6.30 to 7.00	6.30 to 7.00		
C=CC(=O)NC1CCN(Cc2ccc(C#N)cc2)CC1 [Compound I-393]	< 6.30	< 6.30		
C=CC(=O)N1CCC(Nc2ccc(C(F)(F)F)cc2)CC1 [Compound I-59, 1-[4-[4-(trifluoromethyl)anilino]-1-piperidyl]prop-2-en-1-one]	< 6.30	< 6.30		
C=CC(=O)NC1CCN(Cc2ccc(Cl)cc2)CC1 [Compound I-394]	6.30 to 7.00	6.30 to 7.00		
C=CC(=O)N[C@H]1CCN(Cc2ccc(C(F)(F)F)cc2)C1 [Compound I-57, N-[(3S)-1-[[4-(trifluoromethyl)phenyl]methyl]pyrrolidin-3-yl]prop-2-enamide]	< 6.30	< 6.30		
C=CC(=O)NC1CCN(Cc2ccc(C3CC3)cc2)CC1 [Compound I-397]	< 6.30	6.30 to 7.00		

Second part, the molecule after the results:

pEC50 (TEAD; [1])	pEC50 (H226; [2])	pEC50 (TEAD; TEAD Reporter - MCF7 cells)	pEC50 (H226; H226 cells)	Structure (SMILES)
> 7.00	> 7.00			C=CC(=O)Nc1cc(Oc2cccc(C(F)(F)F)c2)c2cccnc2c1 [Compound I-44, N-[5-[3-(Trifluoromethyl)phenoxy]-7-quinolyl]prop-2-enamide]
< 6.30	6.30 to 7.00			FC(F)(F)c1ccc(CN2CCC3(CC2)CC(Br)=NO3)cc1 [Compound I-149, 3-bromo-8-[[4-(trifluoromethyl)phenyl]methyl]-1-oxa-2,8-diazaspiro[4.5]dec-2-ene]
6.30 to 7.00	6.30 to 7.00			C=CC(=O)NC1CCN(C(=O)c2ccc(C(F)(F)F)cc2)CC1 [Compound I-52, N-[1-[4-(trifluoromethyl)benzoyl]-4-piperidyl]prop-2-enamide]
< 6.30	< 6.30			C=CC(=O)Nc1ccc(C)c(Oc2cc(C(F)(F)F)ccc2OC)c1 [Compound I-32, N-[3-[2-Methoxy-5-(trifluoromethyl)phenoxy]-4-methyl-phenyl]prop-2-enamide]
6.30 to 7.00	6.30 to 7.00			C=CC(=O)N[C@@H]1CCN(Cc2ccc(C(F)(F)F)cc2)C1 [Compound I-55, N-[(3R)-1-[[4-(trifluoromethyl)phenyl]methyl]pyrrolidin-3-yl]prop-2-enamide]
> 7.00	> 7.00			C=CC(=O)N[C@@H]1Cc2ccccc2N(Cc2cccc(C(F)(F)F)c2)C1 [Compound I-71, N-[(3R)-1-[[3-(Trifluoromethyl)phenyl]methyl]-3,4-dihydro-2H-quinolin-3-yl]prop-2-enamide]
6.30 to 7.00	6.30 to 7.00			C=CC(=O)N1CC[C@@H](NCc2cccc(C(F)(F)F)c2)C1 [Compound I-386, 1-[(3R)-3-[[3-(Trifluoromethyl)phenyl]methylamino]pyrrolidin-1-yl]prop-2-en-1-one]
		< 6.30	< 6.30	C=CC(=O)NC1CCC(Nc2ccc(C(F)(F)F)cc2)CC1 (centres unmarked) [Compound I-56, N-[4-[4-(trifluoromethyl)anilino]cyclohexyl]prop-2-enamide]
6.30 to 7.00	< 6.30			C=CC(=O)N1CC[C@H](NCc2cccc(C(F)(F)F)c2)C1 [Compound I-65, 1-[(3S)-3-[[3-(trifluoromethyl)phenyl]methylamino]pyrrolidin-1-yl]prop-2-en-1-one]
< 6.30	< 6.30			C=CC(=O)NC1CCN(Cc2ccc(C(C)(C)C)cc2)CC1 [Compound I-395]
		< 6.30	< 6.30	C=CC(=O)NC1CCC(Nc2ccc(C(F)(F)F)cc2)CC1 (centres unmarked) [Compound I-58, N-[4-[4-(trifluoromethyl)anilino]cyclohexyl]prop-2-enamide]
< 6.30	6.30 to 7.00			C=CC(=O)Nc1ccc2c(c1)N(c1cccc(C(F)(F)F)c1)CCC2 [Compound I-37, N-[1-[3-(trifluoromethyl)phenyl]-3,4-dihydro-2H-quinolin-7-yl]prop-2-enamide]
> 7.00	6.30 to 7.00			C=CC(=O)Nc1cc(Oc2cccc(C(F)(F)F)c2)cc2ncccc12 [Compound I-42]
6.30 to 7.00	> 7.00			C=CC(=O)N1C[C@@H]2[C@H](C1)[C@H]2NCc1cccc(C(F)(F)F)c1 [Compound I-72, 1-[(1S,5R)-6-[[3-(trifluoromethyl)phenyl]methylamino]-3-azabicyclo[3.1.0]hexan-3-yl]prop-2-en-1-one]
< 6.30	< 6.30			NC(=O)/C=C/c1cc(Oc2cccc(C(F)(F)F)c2)cc2ncccc12 [Compound I-39, (E)-3-[7-[3-(trifluoromethyl)phenoxy]-5-quinolyl]prop-2-enamide]
< 6.30	< 6.30			C=CC(=O)NC1CCN(Cc2ccc(SC(F)(F)F)cc2)CC1 [Compound I-387]
< 6.30				C=CC(=O)Nc1ccc2c(c1)N(c1ccc(C(F)(F)F)cc1)CCC2 [Compound I-34, N-[1-[4-(Trifluoromethyl)phenyl]-3,4-dihydro-2H-quinolin-7-yl]prop-2-enamide]
< 6.30	< 6.30			C=CC(=O)NC1CCN(Cc2ccc(-c3ccccc3)cc2)CC1 [Compound I-389]
< 6.30	< 6.30			C=CC(=O)Nc1ccc(C)c(Oc2cc(C(F)(F)F)ccc2Br)c1 [Compound I-41, N-[3-[2-bromo-5-(trifluoromethyl)phenoxy]-4-methyl-phenyl]prop-2-enamide]
		< 6.30	< 6.30	C=CC(=O)NC1(C)CCN(Cc2ccc(C(F)(F)F)cc2)CC1 [Compound I-73, N-[4-methyl-1-[[4-(trifluoromethyl)phenyl]methyl]-4-piperidyl]prop-2-enamide]
